Measured values as given in US6962929B2, “Pentafluorobenzenesulfonamides and analogs” (Tularik Inc., priority 1996, dated 2005).
pIC50: −log10 of the molar value.

test system: tubulin; test: Irreversible labeling of cellular protein by tritiated compounds in MCF7 cells; format: binding; conditions: tritiated form; human breast carcinoma MCF7 cells
Description: Preferred compounds display specific toxicity to various types of cells. Certain compounds and compositions of the present invention exert their cytotoxic effects by interacting with cellular tubulin. For certain preferred compounds and compositions of the present invention, that interaction is covalent and irreversible. […] This protein is a key component of microtubules, which constitute the cytoskeleton and also play critical roles in many other aspects of the cell's physiology, including cell division. The labeling of tubulin by the subject preferred compounds is also shown to be dose-dependent. The site of covalent binding on tubulin is identified as Cysteine-239 on the β-tubulin chain. The same Cys-239 residue is selectively covalently modified when present in a wide variety of Cys-239 containing β-tubulin petides (e.g. Ser-234 to Met-267) provided in vitro or in vivo. One embodiment of these preferred compounds provides the binding mechanism shown in Scheme IV, namely, displacement of the para-fluorine atom by the thiol group of Cys-239.

SMILES | labeling of cellular protein
[3H]c1cc(OC)c(F)cc1NS(=O)(=O)c1c(F)c(F)c(F)c(F)c1F [Example 72, 4-[3H]-1-Fluoro-2-methoxy-5-pentafluorosulfonamidobenzene] | irreversible labeling of only one detectable cellular protein, which was found to be tubulin

test system: HeLa cells; test: Inhibition of in vitro growth of HeLa cells (Alamar Blue uptake); format: cell-based, human; conditions: Homo sapiens; concentration required to inhibit by 50% the uptake of Alamar Blue by HeLa cell cultures
Procedure: Compounds were evaluated for their ability to inhibit in vitro the growth of HeLa cells, an immortal cell line derived from a human cervical carcinoma commonly used to evaluate the cytotoxicity of potential therapeutic agents. The following data reflect the cytotoxicity of selected examples of the present invention. The values given represent the concentration of test compound required to inhibit by 50% the uptake of Alamar Blue (Biosource International, Camarillo, Calif.) by HeLa cell cultures, which correlates directly with the overall levels of cellular metabolism in the culture, and is generally accepted as an appropriate marker of cell growth. The test was conducted according to the method of S. A. Ahmed et al. (1994) J. Immunol. Methods 170: 211-224.

pIC50 | SMILES
> 7.30 | CN(C)c1ccc(NS(=O)(=O)c2c(F)c(F)c(F)c(F)c2F)cc1 [Example 1, 4-(N,N-Dimethylamino)-1-pentafluorophenylsulfonamidobenzene]
6.82 | CN(C)c1cccc(NS(=O)(=O)c2c(F)c(F)c(F)c(F)c2F)c1 [Example 2, 3-(N,N-Dimethylamino)-1-pentafluorophenylsulfonamidobenzene]
5.82 | O=S(=O)(Nc1ccc2c(c1)OCCO2)c1c(F)c(F)c(F)c(F)c1F [Example 3, 1,2-Ethylenedioxy-4-pentafluorophenylsulfonamidobenzene]
5.00 | O=S(=O)(Nc1ccc2c(c1)OCO2)c1c(F)c(F)c(F)c(F)c1F [Example 4, 1,2-Methylenedioxy-4-pentafluorophenylsulfonamidobenzene]
> 7.30 | COc1ccc(NS(=O)(=O)c2c(F)c(F)c(F)c(F)c2F)cc1O [Example 6, 2-Hydroxy-1-methoxy-4-pentafluorophenylsulfonamidobenzene]
> 7.30 | COc1ccc(NS(=O)(=O)c2c(F)c(F)c(F)c(F)c2F)cc1 [Example 8, 4-Methoxy-1-pentafluorophenylsulfonamidobenzene]
6.00 | O=S(=O)(Nc1cccc(O)c1)c1c(F)c(F)c(F)c(F)c1F [Example 9, 3-Hydroxy-1-pentafluorophenylsulfonamidobenzene]
6.82 | CCN(CC)c1ccc(NS(=O)(=O)c2c(F)c(F)c(F)c(F)c2F)cc1 [Example 12, 4-(N,N-Diethylamino)-1-pentafluorophenylsulfonamidobenzene]
6.00 | O=S(=O)(Nc1ccc2[nH]ncc2c1)c1c(F)c(F)c(F)c(F)c1F [Example 15, 5-Pentafluorophenylsulfonamidoindazole]
5.00 | CN(C)c1ccc(N(C)S(=O)(=O)c2c(F)c(F)c(F)c(F)c2F)cc1 [Example 17, 4-(N,N-Dimethylamino)-1-(N-methylpentafluorophenylsulfonanido)benzene]
5.00 | O=S(=O)(Nc1ccc(N2CCOCC2)cc1)c1c(F)c(F)c(F)c(F)c1F [Example 25, 4-(1-Morpholino)-1-pentafluorophenylsulfonamidobenzene]
5.82 | COc1ccc(N(C)S(=O)(=O)c2c(F)c(F)c(F)c(F)c2F)cc1F [Example 30, 2-Fluoro-1-methoxy-4-(N-methylpentafluorophenylsulfonamido)benzene]
6.30 | COc1ccc(NS(=O)(=O)c2c(F)c(F)c(F)c(F)c2F)cc1Br [Example 31, 2-Bromo-1-methoxy4-pentafluorophenylsulfonamidobenzene]

SMILES | pIC50
COc1ccc(NS(=O)(=O)c2c(F)c(F)c(F)c(F)c2F)cc1F [Example 7, 2-Fluoro-1-methoxy-4-pentafluorosulfonamidobenzene] | > 7.30

same assay, conditions: concentration required to inhibit by 50% the uptake of Alamar Blue by HeLa cell cultures

pIC50 | SMILES
7.00 | COc1ccc(NS(=O)(=O)c2c(F)c(F)c(F)c(F)c2F)cc1Cl [Example 32, 2-Chloro-1-methoxy-4-pentafluorophenylsulfonamidobenzene]

test system: not given; test: not given; conditions: not given

melting point | SMILES
102 to 103 °C | COc1ccc(NS(=O)(=O)c2c(F)c(F)c(F)c(F)c2F)cc1 [Example 8, 4-Methoxy-1-pentafluorophenylsulfonamidobenzene]
144 to 145 °C | O=S(=O)(Nc1ccc(Cl)nc1)c1c(F)c(F)c(F)c(F)c1F [Example 36, 2-Chloro-5-pentafluorophenylsulfonamidopyridine]
118 °C | COc1ccc(N(CCCCCO)S(=O)(=O)c2c(F)c(F)c(F)c(F)c2F)cc1O [Example 37, 2-Hydroxy-1-methoxy-4-(N-(5-hydroxypentyl)-pentafluorophenylsulfonamido)benzene]
109 °C | COc1cc(Br)c(NS(=O)(=O)c2c(F)c(F)c(F)c(F)c2F)cc1F [Example 41, 1-Bromo-4-fluoro-5-methoxy-2-pentafluorophenylsulfonamidobenzene]
121 to 123 °C | COc1ccc(NS(=O)(=O)c2c(F)c(F)c(F)c(F)c2F)cc1C(F)(F)F [Example 49, 4-Methoxy-1-pentafluorophenylsulfonamido-3-trifluoromethylbenzene]
59 to 60 °C | C=CCN(c1ccc(OC)cc1)S(=O)(=O)c1c(F)c(F)c(F)c(F)c1F [Example 50, 4-Methoxy-1-(N-(2-propenyl)pentafluorophenylsulfonamido)benzene]
64 to 66 °C | C=CCCN(c1ccc(OC)cc1)S(=O)(=O)c1c(F)c(F)c(F)c(F)c1F [Example 51, 1-(N-(3-Butenyl)pentafluorophenylsulfonamido)-4-methoxybenzene]
130 to 131 °C | COc1ccc(N(CC(O)CO)S(=O)(=O)c2c(F)c(F)c(F)c(F)c2F)cc1 (stereo not drawn) [Example 53, 1-(N-(2,3-Dihydroxypropyl)pentafluorophenylsulfonamido)-4-methoxybenzene]
126 to 128 °C | COc1ccc(N(CCC(O)CO)S(=O)(=O)c2c(F)c(F)c(F)c(F)c2F)cc1 (stereo not drawn) [Example 54, 1-(N-(3,4-Dihydroxybutyl)pentafluorophenylsulfonamido)-4-methoxybenzene]
116 to 118 °C | COc1ccc(N(CCCC(O)CO)S(=O)(=O)c2c(F)c(F)c(F)c(F)c2F)cc1 (stereo not drawn) [Example 55, 1-(N-(4,5-Dihydroxypentyl)pentafluorophenylsulfonamido)-4-methoxybenzene]
88 to 90 °C | COc1ccc(N(CCCCO)S(=O)(=O)c2c(F)c(F)c(F)c(F)c2F)cc1 [Example 56, 1-(N-(4-hydroxybutyl)pentafluorophenylsulfonamido)-4-methoxybenzene]
96 to 97 °C | COc1ccc(N(CCCCCO)S(=O)(=O)c2c(F)c(F)c(F)c(F)c2F)cc1 [Example 57, 4-Methoxy-1-(N-(5-hydroxypentyl)pentafluorophenylsulfonamido)benzene]
95 to 97 °C | COc1ccc(NS(=O)(=O)c2c(F)c(F)c(F)c(F)c2F)cc1[N+](=O)[O-] [Example 58, 4-Methoxy-3-nitro-1-pentafluorophenylsulfonamidobenzene]
142 to 143 °C | COc1ccc(NS(=O)(=O)c2c(F)c(F)c(F)c(F)c2F)cc1N [Example 59, 3-Amino-4-methoxy-1-pentafluorophenylsulfonamidobenzene]
